From patent US7276352B2, “Induction of β cell differentiation in human cells by stimulation of the GLP-1 receptor” (The Regents of the University of California, priority 2000, dated 2007)

Assays:
βlox5 cells [1] = assay: RT-PCR analysis of pancreatic hormone gene expression in βlox5 cells; assay type: cell-based, human; conditions: for hormone expression in βlox5 cells: βlox5 cells expressing PDX-1, data not shown
Excerpt: FIG. 2: RT-PCR analysis of pancreatic hormone gene expression in βlox5. The conditions tested were βlox5 cells grown in monolayer culture, βlox5 cells infected with a retroviral vector expressing PDX-1, βlox5 cells grown as three-dimensional aggregates, and βlox5 cells treated with exendin-4. FIG. 2(A) insulin; FIG. 2(B) quantitative RT-PCR analysis of insulin gene expression; FIG. 2(C) other pancreatic hormones. Aggregation of cells into three-dimensional clusters and the retroviral vector expressing PDX-1 have been described previously (Itkin-Ansari et al., submitted). Exendin-4 (Sigma) was used at a concentration of 10 nM. RT-PCR for insulin, somatostatin, glucagon, and IAPP have been described previously (Itkin-Ansari et al., submitted). Quantitative RT-PCR was done by interpolation from a standard curve constructed using a plasmid containing the human insulin cDNA.
PDX-1 also acted synergistically with cell-cell contact to further increase the level of […] expression about 1,000-fold above the cells not expressing PDX-1, to a level similar to that found in normal human islets. To determine whether βlox5 could be induced to express pancreatic hormones, recombinant PDX-1 was expressed in βlox5 using a retroviral vector. […] Therefore, other factors were examined for their ability to induce hormone expression in βlox5 cells expressing PDX-1. Activin and betacellulin have been reported to be able to induce endocrine differentiation in cell lines and primary cells (Mashima et al., Diabetes 48:304-9 (1999), Huotari et al., Endocrinology 139, 1494-9 (1998), Mashima et al., J Clin Invest 97:1647-54 (1996), Yamaoka et al, J Clin Invest 102:294-301 (1998)). However, they had no effect on hormone expression in βlox5 cells (data not shown).
GLP-1, a small peptide cleaved from the proglucagon molecule, is an insulin secretogogue Drucker et al., Diabetes 47:159-69 (1998)).
By itself, exendin-4 had no effect on hormone expression in βlox5 (FIG. 2A, lane 8). […] The nature of the interaction between exendin-4, cell-cell contact, and PDX-1 is evident from the fact that no hormone mRNA was detectable with any one or two of the three inducing factors (FIG. 2A). […] Islet amyloid polypeptide (IAPP) mRNA, a hormone that is co-secreted with insulin, was also expressed in induced βlox5 cells (FIG. 2C, lane 2). However, the other major pancreatic hormones, glucagon, somatostatin, and pancreatic polypeptide (PP), were not induced (FIG. 2C).

βlox5 cells [2] = assay: Analysis of transcription factors expressed in βlox5 cells (RT-PCR, Western blot); assay type: cell-based, human
Procedure: FIG. 3: Analysis of transcription factors expressed in βlox5 cells. FIG. 3(A) electrophoretic mobility shift assay (EMSA) of PDX-1. EM5A for PDX-1 was performed using a probe derived from the human insulin promoter A5 element. FIGS. 3(B&C) RT-PCR analysis of BETA2 and Pax6. FIG. 3(D) Western blot analysis of CREB. FIG. 3(E) EMSA of RIPE3b.
The expression of transcription factors important in β-cell development was examined to determine whether they had been induced by PDX-1, cell-cell contact, and exendin-4. […] GLP-1 has been reported to increase cAMP levels and this has been thought to be a major mechanism by which GLP-1 acts as an insulin secretogogue (Serre et al., Endocrinology 139:4448-54 (1998)). […] RIPE3b, a factor that plays a critical role in insulin gene expression but that has not yet been cloned, is expressed in βlox5 irrespective of PDX-1, cell-cell contact, or exendin-4 (FIG. 3E).

[3] = induced βlox5 cells (PDX-1, cell-cell contact, exendin-4 10 nM)

## Activin
βlox5 cells [1]
  hormone expression in βlox5 cells: no effect

## exendin-4
βlox5 cells [1]; exendin-4 by itself, 10 nM, four days, no PDX-1, no aggregation
  hormone expression in βlox5: no effect
βlox5 cells [1]; [3]
  Islet amyloid polypeptide (IAPP) mRNA: expressed
  glucagon, somatostatin and pancreatic polypeptide (PP) expression: not induced
βlox5 cells [1]; βlox5 cells expressing PDX-1, suspension culture as three-dimensional aggregates, 10 nM exendin-4 for four days
  insulin mRNA: substantial amount of insulin mRNA was detectable
βlox5 cells [2]; PDX-1, cell-cell contact and exendin-4, RT-PCR
  BETA2 expression: induced only by the combination of all three inducing factors
βlox5 cells [2]; exendin-4 alone, independently of cell-cell contact and PDX-1, Western blot
  CREB expression: induced

B1: betacellulin (protein, UniProt P35070 32-111, looked up)
Betacellulin: DGNSTRSPETNGLLCGDPEENCAATTTQSKRKGHFSRCPKQYKHYCIKGRCRFVVAEQTPSCVCDEGYIGARCERVDLFY
notes: factor reported to be able to induce endocrine differentiation in cell lines and primary cells
βlox5 cells [1]
  hormone expression in βlox5 cells: no effect
